ChEMBL document CHEMBL1201862, “PubChem BioAssay data set” (2004)
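96-well plates; 48 h exposure; 5 concentrations. Endpoints by linear interpolation between flanking doses. Not reached: highest tested concentration assigned. GI50 marks 50% less growth.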 The source made the active and inactive calls. No stated cut-off is given here; in the data, active = GI50 up to about 1.1 µM and inactive = higher.

Tests used:
Experiment in all cases: DTP human tumour cell line panel, 48 h
MOLT-4 = test system: MOLT-4
EKVX = test system: EKVX
HOP-62 = test system: HOP-62
Malme-3M = test system: Malme-3M
HOP-92 = test system: HOP-92
HCC 2998 = test system: HCC 2998
A498 = test system: A498
A549 = test system: A549
UO-31 = test system: UO-31
UACC-62 = test system: UACC-62
LOX IMVI = test system: LOX IMVI
COLO 205 = test system: COLO 205
SF-539 = test system: SF-539
U-251 = test system: U-251
OVCAR-5 = test system: OVCAR-5
IGROV-1 = test system: IGROV-1
OVCAR-4 = test system: OVCAR-4
PC-3 = test system: PC-3
MDA-MB-231 = test system: MDA-MB-231

Measured: GI50

C=CCn1c(=O)n(CC=C)c(=O)n(CC=C)c1=O
inactive: MOLT-4 > 100 µM | EKVX > 100 µM | HOP-62 > 100 µM | Malme-3M > 100 µM | HOP-92 > 100 µM | HCC 2998 > 100 µM | A498 > 100 µM | A549 > 100 µM | UO-31 > 100 µM | UACC-62 > 100 µM | LOX IMVI > 100 µM | COLO 205 > 100 µM | SF-539 > 100 µM | U-251 > 100 µM | OVCAR-5 > 100 µM | IGROV-1 > 100 µM

COc1cc2c(cc1OC)C1Cc3ccc(OC)c(OC)c3C[N+]1([O-])CC2 (stereo unspecified)
inactive: MOLT-4 > 100 µM | EKVX > 100 µM | HOP-62 > 100 µM | Malme-3M > 100 µM | HCC 2998 > 100 µM | A498 > 100 µM | A549 > 100 µM | UO-31 > 100 µM | OVCAR-4 > 100 µM | SF-539 > 100 µM | U-251 > 100 µM | OVCAR-5 > 100 µM

CC(C)N(C(=O)C12C3C4C5(C(=O)O)C(C1C35I)C42C(=O)O)C(C)C (stereo unspecified)
inactive: MOLT-4 > 100 µM | EKVX > 100 µM | HOP-62 > 100 µM | Malme-3M > 100 µM | HOP-92 > 100 µM | HCC 2998 > 100 µM | A498 > 100 µM | A549 > 100 µM | UO-31 > 100 µM | UACC-62 > 100 µM | OVCAR-4 > 100 µM | COLO 205 > 100 µM | SF-539 > 100 µM | U-251 > 100 µM | OVCAR-5 > 100 µM | IGROV-1 > 100 µM

COc1ccc2c(c1)[n+]([O-])c(/C(C)=N/NC(=O)CC#N)c[n+]2[O-]
inactive: MOLT-4 > 100 µM | EKVX > 100 µM | HOP-62 > 100 µM | Malme-3M > 100 µM | HOP-92 > 100 µM | HCC 2998 > 100 µM | A498 > 100 µM | A549 > 100 µM | UO-31 > 100 µM | UACC-62 > 100 µM | LOX IMVI > 100 µM | OVCAR-4 > 100 µM | COLO 205 83.4 µM | SF-539 > 100 µM | U-251 > 100 µM | OVCAR-5 > 100 µM | IGROV-1 > 100 µM

COC(=O)c1nn(C(=N)c2ccc(Cl)cc2)c2c1CCCCC2
inactive: MOLT-4 > 100 µM | HOP-62 > 100 µM | Malme-3M > 100 µM | HOP-92 > 100 µM | HCC 2998 > 100 µM | A498 > 100 µM | A549 > 100 µM | UO-31 > 100 µM | UACC-62 > 100 µM | LOX IMVI > 100 µM | OVCAR-4 > 100 µM | COLO 205 > 100 µM | SF-539 > 100 µM | U-251 > 100 µM | OVCAR-5 > 100 µM | IGROV-1 > 100 µM

CCOP(=S)(OCC)Oc1ccc2c(c1)OC(=O)C1(Cl)C2(C)C2(Cl)C(=O)Oc3cc(OP(=S)(OCC)OCC)ccc3C12C (stereo unspecified)
inactive: MOLT-4 20.9 µM | EKVX 24.3 µM | HOP-62 18.3 µM | Malme-3M 22.6 µM | HCC 2998 17.7 µM | A498 25.5 µM | A549 25.5 µM | UO-31 17.9 µM | UACC-62 12.6 µM | LOX IMVI 19 µM | OVCAR-4 10.7 µM | COLO 205 19.1 µM | SF-539 11.1 µM | U-251 6.35 µM | OVCAR-5 19 µM | IGROV-1 17.3 µM

COC1=NCc2ccccc2-c2ccccc21
inactive: MOLT-4 > 100 µM | Malme-3M > 100 µM | A549 > 100 µM | UO-31 20.2 µM | UACC-62 > 100 µM | LOX IMVI > 100 µM | OVCAR-4 > 100 µM | SF-539 > 100 µM | U-251 > 100 µM

COC(=O)C1=C(c2cc(OC)c(OC)c(OC)c2)OC(c2ccc(OC)c(OC)c2)C1 (stereo unspecified)
inactive: MOLT-4 18.9 µM | EKVX > 100 µM | HOP-62 59.3 µM | Malme-3M > 100 µM | HOP-92 42.5 µM | HCC 2998 54.7 µM | A498 22.6 µM | A549 46.8 µM | UO-31 38.9 µM | UACC-62 71.4 µM | LOX IMVI 29.3 µM | OVCAR-4 47.2 µM | COLO 205 19.1 µM | SF-539 42.9 µM | U-251 42 µM | OVCAR-5 > 100 µM | IGROV-1 61.1 µM

CC1(C(=O)O)CCCC1C(=O)O (stereo unspecified)
inactive: MOLT-4 > 100 µM | EKVX > 100 µM | HOP-62 > 100 µM | Malme-3M > 100 µM | HOP-92 > 100 µM | A498 > 100 µM | A549 > 100 µM | UO-31 > 100 µM | UACC-62 > 100 µM | LOX IMVI > 100 µM | OVCAR-4 > 100 µM | PC-3 > 100 µM | MDA-MB-231 > 100 µM | U-251 > 100 µM | OVCAR-5 > 100 µM | IGROV-1 > 100 µM

CN(C)C(=S)/N=c1\ss/c(=N\S(=O)(=O)c2ccccc2)n1N(C)C
inactive: MOLT-4 > 100 µM | EKVX > 100 µM | HOP-62 > 100 µM | Malme-3M > 100 µM | HCC 2998 > 100 µM | A498 > 100 µM | A549 > 100 µM | UO-31 > 100 µM | UACC-62 > 100 µM | OVCAR-4 > 100 µM | COLO 205 > 100 µM | SF-539 > 100 µM | U-251 > 100 µM | IGROV-1 > 100 µM

Oc1ccc2ccccc2c1/N=N/c1ccsc1
inactive: MOLT-4 > 100 µM | HOP-62 > 100 µM | Malme-3M > 100 µM | HOP-92 > 100 µM | HCC 2998 > 100 µM | A498 > 100 µM | A549 > 100 µM | UO-31 > 100 µM | UACC-62 > 100 µM | LOX IMVI > 100 µM | OVCAR-4 > 100 µM | COLO 205 > 100 µM | SF-539 > 100 µM | U-251 > 100 µM | OVCAR-5 > 100 µM | IGROV-1 > 100 µM

O=C(n1c2ccccc2c2nnc(S)nc21)C(F)(F)F
inactive: MOLT-4 > 100 µM | EKVX > 100 µM | HOP-62 > 100 µM | Malme-3M > 100 µM | HOP-92 > 100 µM | HCC 2998 > 100 µM | A549 > 100 µM | UO-31 > 100 µM | UACC-62 > 100 µM | LOX IMVI > 100 µM | OVCAR-4 > 100 µM | COLO 205 > 100 µM | SF-539 > 100 µM | U-251 > 100 µM | OVCAR-5 > 100 µM | IGROV-1 > 100 µM

O=c1c(C(c2ccc([N+](=O)[O-])cc2)c2c(O)oc3ccccc3c2=O)c(O)oc2ccccc12
inactive: MOLT-4 > 100 µM | EKVX > 100 µM | HOP-62 > 100 µM | Malme-3M > 100 µM | HOP-92 > 100 µM | A498 > 100 µM | UO-31 > 100 µM | UACC-62 > 100 µM | LOX IMVI > 100 µM | OVCAR-4 > 100 µM | PC-3 > 100 µM | COLO 205 > 100 µM | MDA-MB-231 > 100 µM | U-251 > 100 µM | IGROV-1 > 100 µM
